pEC50, pIC50: −log10 of the molar value.
Experiments:
[1] = system: NCI-H358 cells (K-Ras G12C); experiment: Potency assay: pERK in NCI-H358 cells; format: cell-based, human; conditions: Homo sapiens, NCI-H358; H358 KRAS G12C; read-out: pERK EC50
Method in brief: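 pERK decrease read by AlphaLISA SureFire p-ERK1/2 or In-Cell Western after 4 h compound exposure at 37 °C, 5% CO2.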

NCI-H358 (K-Ras G12C) = experiment: CellTiter-Glo cell viability assay, NCI-H358; format: cell-based, human; conditions: Homo sapiens, NCI-H358, 120 h, NCI-H358, 5-day treatment; class symbols; read-out: Additional H358 Cell Viability assay data (K-Ras G12C, IC50)
Method in brief: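 Cells seeded, compound added directly, 5-day exposure. Plates to RT ~30 min, CellTiter-Glo luminescence read. Normalized to DMSO avg (x100); 4-parameter logistic fit.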

K-Ras G12C = K-Ras G12C (Homo sapiens (Human), UniProt P01116+P62937, G12C); experiment: Ras-Raf (BRAF RBD) disruption / FRET / MOA assay, KRAS G12C; format: biochemical; conditions: KRAS G12C; Ras-Raf disruption/FRET/MOA assay; read-out: IC50* KRAS G12C FRET data
Chain of K-Ras G12C (P01116-2 other isoform, or with tags, fused parts or gaps G12C): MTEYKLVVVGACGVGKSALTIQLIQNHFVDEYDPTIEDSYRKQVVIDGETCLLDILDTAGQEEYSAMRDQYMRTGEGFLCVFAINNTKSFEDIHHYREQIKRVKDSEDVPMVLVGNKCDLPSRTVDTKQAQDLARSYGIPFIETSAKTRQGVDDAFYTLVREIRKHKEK
Chain of K-Ras G12C (P62937 whole entry): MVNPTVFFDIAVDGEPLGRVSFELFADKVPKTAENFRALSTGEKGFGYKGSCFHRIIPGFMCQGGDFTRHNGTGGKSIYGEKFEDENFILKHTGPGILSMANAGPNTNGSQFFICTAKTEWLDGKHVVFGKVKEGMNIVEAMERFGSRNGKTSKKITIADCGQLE
Method in brief: (§1)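 A 10-point, 3-fold dilution series topping at 30 μM final was incubated 3 h at 25° C with the Ras/cyclophilin A/BRAF RBD mixture.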

K-Ras G13C = K-Ras G13C (Homo sapiens (Human), UniProt P01116+P62937, G13C); experiment: Ras-Raf (BRAF RBD) disruption / FRET / MOA assay, KRAS G13C; format: biochemical; conditions: KRAS G13C; Ras-Raf disruption/FRET/MOA assay; read-out: IC50* KRAS G13C FRET data
Chain of K-Ras G13C (P01116-2 other isoform, or with tags, fused parts or gaps G13C): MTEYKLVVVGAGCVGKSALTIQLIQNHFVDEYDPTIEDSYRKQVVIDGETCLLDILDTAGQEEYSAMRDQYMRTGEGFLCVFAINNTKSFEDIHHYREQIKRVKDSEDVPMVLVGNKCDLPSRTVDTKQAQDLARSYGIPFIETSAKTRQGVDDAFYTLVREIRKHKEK
Chain of K-Ras G13C (P62937 whole entry): as the sequence (P62937 whole entry) above
Method in brief: as §1

KRAS G12S = KRAS G12S (Homo sapiens (Human), UniProt P01116+P62937, G12S); experiment: Ras-Raf (BRAF RBD) disruption / FRET / MOA assay, KRAS G12S; format: biochemical; conditions: Ras-Raf disruption/FRET/MOA assay; class symbols; read-out: KRAS G12S FRET data IC50
Chain of KRAS G12S (P01116-2 other isoform, or with tags, fused parts or gaps G12S): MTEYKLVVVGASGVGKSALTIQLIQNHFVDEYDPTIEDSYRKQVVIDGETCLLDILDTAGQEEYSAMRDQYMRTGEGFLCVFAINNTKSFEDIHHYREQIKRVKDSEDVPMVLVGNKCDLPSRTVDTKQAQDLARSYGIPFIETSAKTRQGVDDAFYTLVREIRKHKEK
Chain of KRAS G12S (P62937 whole entry): as the sequence (P62937 whole entry) above
Method in brief: as §1

KRAS G12D = KRAS G12D (Homo sapiens (Human), UniProt P01116+P62937, G12D); experiment: Ras-Raf (BRAF RBD) disruption / FRET / MOA assay, KRAS G12D; format: biochemical; conditions: Ras-Raf disruption/FRET/MOA assay; class symbols; read-out: KRAS G12D FRET data IC50
Chain of KRAS G12D (P01116-2 other isoform, or with tags, fused parts or gaps G12D): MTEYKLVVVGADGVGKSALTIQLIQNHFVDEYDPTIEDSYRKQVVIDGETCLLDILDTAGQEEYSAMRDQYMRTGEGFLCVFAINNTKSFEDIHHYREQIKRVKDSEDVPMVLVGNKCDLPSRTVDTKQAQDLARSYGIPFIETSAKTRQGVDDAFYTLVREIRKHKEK
Chain of KRAS G12D (P62937 whole entry): as the sequence (P62937 whole entry) above
Method in brief: as §1

KRAS G12V = KRAS G12V (Homo sapiens (Human), UniProt P01116+P62937, G12V); experiment: Ras-Raf (BRAF RBD) disruption / FRET / MOA assay, KRAS G12V; format: biochemical; conditions: read-out: IC50* KRAS G12V FRET data
Chain of KRAS G12V (P01116-2 other isoform, or with tags, fused parts or gaps G12V): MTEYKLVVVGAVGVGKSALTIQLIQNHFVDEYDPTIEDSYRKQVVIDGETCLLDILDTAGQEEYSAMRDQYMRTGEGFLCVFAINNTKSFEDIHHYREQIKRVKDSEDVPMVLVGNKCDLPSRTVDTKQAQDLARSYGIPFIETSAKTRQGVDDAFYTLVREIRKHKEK
Chain of KRAS G12V (P62937 whole entry): as the sequence (P62937 whole entry) above
Method in brief: as §1

KRAS WT = KRAS WT (Homo sapiens (Human), UniProt P01116+P62937); experiment: Ras-Raf (BRAF RBD) disruption / FRET / MOA assay, KRAS WT; format: biochemical; conditions: read-out: IC50* KRAS WT FRET data
Chain of KRAS WT (P01116-2 other isoform, or with tags, fused parts or gaps): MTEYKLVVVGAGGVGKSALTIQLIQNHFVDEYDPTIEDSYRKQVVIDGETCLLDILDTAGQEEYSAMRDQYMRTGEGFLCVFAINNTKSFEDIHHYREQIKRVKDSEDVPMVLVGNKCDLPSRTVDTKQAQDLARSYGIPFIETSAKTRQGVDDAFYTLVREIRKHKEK
Chain of KRAS WT (P62937 whole entry): as the sequence (P62937 whole entry) above
Method in brief: as §1

KRAS G13D = KRAS G13D (Homo sapiens (Human), UniProt P01116+P62937, G13D); experiment: Ras-Raf (BRAF RBD) disruption / FRET / MOA assay, KRAS G13D; format: biochemical; conditions: read-out: IC50* KRAS G13D FRET data
Chain of KRAS G13D (P01116-2 other isoform, or with tags, fused parts or gaps G13D): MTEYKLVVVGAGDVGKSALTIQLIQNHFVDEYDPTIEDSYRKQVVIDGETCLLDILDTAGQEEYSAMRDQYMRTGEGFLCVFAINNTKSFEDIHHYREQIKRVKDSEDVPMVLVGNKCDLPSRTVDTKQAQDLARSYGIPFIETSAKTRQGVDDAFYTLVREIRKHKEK
Chain of KRAS G13D (P62937 whole entry): as the sequence (P62937 whole entry) above
Method in brief: as §1

NRAS G12C = NRAS G12C (Homo sapiens (Human), UniProt P01111+P62937, G12C); experiment: Ras-Raf (BRAF RBD) disruption / FRET / MOA assay, NRAS G12C; format: biochemical; conditions: read-out: IC50* NRAS G12C FRET data
Chain of NRAS G12C (P01111 whole entry G12C): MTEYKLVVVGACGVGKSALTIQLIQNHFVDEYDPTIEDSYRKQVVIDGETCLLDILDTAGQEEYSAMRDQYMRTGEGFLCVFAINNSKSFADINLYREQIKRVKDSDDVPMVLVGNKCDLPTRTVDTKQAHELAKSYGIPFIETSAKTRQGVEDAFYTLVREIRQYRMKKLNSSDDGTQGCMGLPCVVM
Chain of NRAS G12C (P62937 whole entry): as the sequence (P62937 whole entry) above
Method in brief: as §1

| SMILES | pEC50 [1] | pIC50 (NCI-H358 (K-Ras G12C)) | pIC50 (K-Ras G12C) | pIC50 (K-Ras G13C) | pIC50 (KRAS G12S) | pIC50 (KRAS G12D) | pIC50 (KRAS G12V) | pIC50 (KRAS WT) | pIC50 (KRAS G13D) | pIC50 (NRAS G12C) |
| --- | --- | --- | --- | --- | --- | --- | --- | --- | --- | --- |
| CCn1c(-c2cccnc2[C@H](C)OC)c2c3cc(ccc31)-c1cccc(c1)C[C@H](NC(=O)[C@H](C(C)C)N(C)C(=O)[C@H]1CCN(C(=O)C#CC3(N(C)C)CCOCC3)C1)C(=O)N1CCC[C@H](N1)C(=O)OCC(C)(C)C2 (atropisomer, axis not shown) [Example A532] | > 5.30 | > 8.00 | 7.00 to 8.00 | 5.00 to 6.00 | 5.00 to 6.00 | < 5.00 | 5.00 to 6.00 | 5.00 to 6.00 | < 5.00 | 7.00 to 8.00 |
| C=CC(=O)N1CCC12CCN(C(=O)N(C)[C@H](C(=O)N[C@H]1Cc3nc(cs3)-c3ccc4c(c3)c(c(-c3cccnc3[C@H](C)OC)n4CC)CC(C)(C)COC(=O)[C@@H]3CCCN(N3)C1=O)C(C)C)CC2 (atropisomer, axis not shown) [Example A415] | > 5.30 | 7.00 to 8.00 | 6.00 to 7.00 | 6.00 to 7.00 | 6.00 to 7.00 | 5.00 to 6.00 | 6.00 to 7.00 | 6.00 to 7.00 | 6.00 to 7.00 | 6.00 to 7.00 |
| C=CC(=O)N1CC[C@H](C(=O)N(C)[C@H](C(=O)N[C@H]2Cc3cccc(c3)-c3ccc4c(c3)c(c(-c3cccnc3[C@H](C)OC)n4CC#N)CC(C)(C)COC(=O)[C@@H]3CCCN(N3)C2=O)C(C)C)C1 [Example A510] | > 5.30 | 7.00 to 8.00 | 7.00 to 8.00 | 6.00 to 7.00 | 5.00 to 6.00 | 5.00 to 6.00 | 5.00 to 6.00 | 5.00 to 6.00 | 5.00 to 6.00 | 7.00 to 8.00 |
| C=CC(=O)N1C[C@H](C(=O)N(C)[C@H](C(=O)N[C@H]2Cc3cccc(c3)-c3ccc4c(c3)c(c(-c3cccnc3[C@H](C)OC)n4CC)CC(C)(C)COC(=O)[C@@H]3CCCN(N3)C2=O)C(C)C)[C@@H](C)C1 (atropisomer, axis not shown) [Example A451] | > 5.30 | 7.00 to 8.00 | 6.00 to 7.00 | 6.00 to 7.00 | 5.00 to 6.00 | 5.00 to 6.00 | 5.00 to 6.00 | 5.00 to 6.00 | 5.00 to 6.00 | 6.00 to 7.00 |
| CC#CC(=O)N1CC[C@H](C(=O)N(C)[C@H](C(=O)N[C@H]2Cc3cccc(c3)-c3ccc4c(c3)c(c(-c3cccnc3[C@H](C)OC)n4CC)CC(C)(C)COC(=O)[C@@H]3CCCN(N3)C2=O)C(C)C)C1 (atropisomer, axis not shown) [Example A173] | > 5.30 | 7.00 to 8.00 | 6.00 to 7.00 | < 5.00 | 5.00 to 6.00 | < 5.00 | 5.00 to 6.00 | < 5.00 | < 5.00 | 6.00 to 7.00 |
| C=CC(=O)N1CC[C@@H](C(=O)N(C)[C@H](C(=O)N[C@H]2Cc3cc(O)cc(c3)-c3ccc4c(c3)c(c(-c3cncnc3)n4CC)CC(C)(C)COC(=O)[C@@H]3CCCN(N3)C2=O)C(C)C)O1 [Example A179] | > 5.30 | < 6.00 | 7.00 to 8.00 | 6.00 to 7.00 | 5.00 to 6.00 | 5.00 to 6.00 | 5.00 to 6.00 | 5.00 to 6.00 | 5.00 to 6.00 | 7.00 to 8.00 |
| C=CC(=O)Nc1csc(C(=O)N(C)[C@H](C(=O)N[C@H]2Cc3cc(O)cc(c3)-c3ccc4c(c3)c(c(-c3cccnc3[C@H](C)OC)n4CC)CC(C)(C)COC(=O)[C@@H]3CCCN(N3)C2=O)C(C)C)n1 (atropisomer, axis not shown) [Example A259] | > 5.30 | 6.00 to 7.00 | 6.00 to 7.00 | 7.00 to 8.00 | 5.00 to 6.00 | < 5.00 | 5.00 to 6.00 | 6.00 to 7.00 | 5.00 to 6.00 | 6.00 to 7.00 |
| C=CC(=O)N1CC[C@H](C(=O)N(C)[C@H](C(=O)N[C@H]2Cc3cc(O)cc(c3)-c3ccc4c(c3)c(c(-c3cncnc3)n4CC)CC(C)(C)COC(=O)[C@@H]3CCCN(N3)C2=O)C(C)C)O1 [Example A180] | > 5.30 | < 6.00 | 6.00 to 7.00 | 6.00 to 7.00 | 5.00 to 6.00 | 5.00 to 6.00 | 6.00 to 7.00 | 6.00 to 7.00 | 5.00 to 6.00 | 6.00 to 7.00 |
| C=CC(=O)N1CCN(C(=O)N(C)[C@H](C(=O)N[C@H]2Cc3cc(O)cc(c3)-c3ccc4c(c3)c(c(-c3ccccc3CCOC)n4CC)CC(C)(C)COC(=O)[C@@H]3CCCN(N3)C2=O)C(C)C)C[C@H]1COC [Example A146] | > 5.30 | 6.00 to 7.00 | 6.00 to 7.00 | 6.00 to 7.00 | 5.00 to 6.00 | < 5.00 | 5.00 to 6.00 | 5.00 to 6.00 | 5.00 to 6.00 | 6.00 to 7.00 |
| C=CC(=O)N1CC[C@H](C(=O)N(CC)[C@H](C(=O)N[C@H]2Cc3cccc(c3)-c3ccc4c(c3)c(c(-c3cccnc3[C@H](C)OC)n4CC)CC(C)(C)COC(=O)[C@@H]3CCCN(N3)C2=O)C(C)C)C1 (atropisomer, axis not shown) [Example A399] | > 5.30 | 7.00 to 8.00 | 6.00 to 7.00 | 5.00 to 6.00 | 5.00 to 6.00 | < 5.00 | 5.00 to 6.00 | 5.00 to 6.00 | 5.00 to 6.00 | 6.00 to 7.00 |
| C=CC(=O)N1CC[C@H](C(=O)N(C)c2ccccc2C(=O)N[C@H]2Cc3cc(O)cc(c3)-c3ccc4c(c3)c(c(-c3cnccc3COC)n4CC)CC(C)(C)COC(=O)[C@@H]3CCCN(N3)C2=O)C1 [Example A228] | > 5.30 | < 6.00 | 5.00 to 6.00 | < 5.00 | < 5.00 | < 5.00 | < 5.00 | < 5.00 | < 5.00 | 5.00 to 6.00 |
| C/C=C(\C#N)C(=O)N1CC[C@H](C(=O)N(C)[C@H](C(=O)N[C@H]2Cc3cc(O)cc(c3)-c3ccc4c(c3)c(c(-c3cccnc3COC)n4CC)CC(C)(C)COC(=O)[C@@H]3CCCN(N3)C2=O)C(C)C)C1 [Example A178] | > 5.30 | < 6.00 | 7.00 to 8.00 | 7.00 to 8.00 | 6.00 to 7.00 | 5.00 to 6.00 | 6.00 to 7.00 | 5.00 to 6.00 | 5.00 to 6.00 | 7.00 to 8.00 |

Source: patent US11566007B2, “Ras inhibitors” (Revolution Medicines, Inc., priority 2019, dated 2023)
